Tested on: dendritic cells in tumor draining lymph nodes
Assay: Maturation of dendritic cells in tumor draining lymph nodes of mice (Example 5)
Type: in vivo, mouse
Details: 24 hour after intratumoral injection, 10 μg MPLA
Description: Immunocompetent mice were injected with Yale University Mouse Melanoma Exposed to Radiation 1.7 (YUMMER1.7) cells for in vivo modeling of immunogenic, cutaneous melanoma. 300,000 cells of YUMMER 1.7 melanoma cells in 50 μL of sterile PBS were intradermally injected into the left flank of syngeneic C57Bl/6 mice.
The mice were watched for tumor growth for eight days until the mice were randomly divided into groups (n=10) based on tumor sizes between 40-90 mm^3. The mice received vehicle (10 μl distilled water), free MPLA (10 μg), NNP-MPLA (10 μg of active MPLA), and BNP-MPLA (10 μg of active MPLA) intratumorally. The mice were sacrificed either at 24 hours or 72 hours after the single intratumoral injection. The tumor draining lymph nodes, both axillary and inguinal, were collected from each mouse. A petri dish was used to collect the lymph nodes, and the frosted ends of microscope slides were used to gently release immune cells from the lymph nodes into fresh CRPMI and placed on ice until resuspension. […]
After lymph node single cell collection, the cells were rinsed with sterile PBS and plated into a 96 round-bottom well plate at a concentration density of 1-2×10^6 cells per well then rinsed again with PBS. […] The stained cells were then detected by flow cytometer (Cytoflex, Beckman Coulter). […]

**Q.** Which “dendritic cell maturation (CD80+CD86+ in CD11c+ cells) in TDLN” value does the source give for monophosphoryl lipid A [free MPLA] here?
**A.** significant increase
